# Columns and labels:
# Format in all cases: cell-based
# E. coli ∆tolC JW5503-1 = test: MIC, E. coli ∆tolC; conditions: Escherichia coli, read-out: MIC tolC
# Protocol: (§1) The inoculum used for all the experiments is derived from a single seed lot that is maintained as glycerol stocks at −80 °C and are sub cultured on LB plate for isolated colonies. Single colony of each strain is grown in M9 medium. All test compound stocks and dilutions are prepared in DMSO. Serial two-fold dilutions of compounds are prepared separately, with the concentrations ranging from 2 mg/mL to 0.015 mg/mL. To 150 µl (3–7 × 10^5 CFU/ml) of bacterial culture in 96 well microtitre plates, 3 μL compound from each of the dilutions is added to respective wells to obtain final concentrations ranging from 40 µg/mL to 0.3 µg/mL of the test compounds. Media control, culture control and appropriate reference drug controls are included. […] Growth is monitored by checking absorbance at 600 nm (A600). […] The samples from MIC and above concentrations are plated for MBC (Minimum Bactericidal Concentration). The samples are diluted 1:10 and plated on LB agar plates. […] The killing kinetics is determined by enumerating survivors at various time points following compound exposure. E. coli cells (~10^7 CFU/ml; A600 of 0.1) are treated with various concentrations (40 µg/mL to 0.3 µg/mL) of compounds in a 96-well microtitre plate. At various time intervals (0 to 8 h), 30 μl volumes of treated cultures are serially diluted and plated on LB agar plates. […] Data is expressed as the log10 CFU for each drug treatment.
# E. coli ∆acrB JW0451-2 = test: MIC, E. coli ∆acrB; conditions: Escherichia coli, read-out: MIC acrB
# Protocol: as §1
# [1] = test system: wild-type E. coli CGSC#7636 (BW25113); test: MIC, wild-type E. coli; conditions: Escherichia coli, BW25113, E. coli WT BW25113; read-out: MIC WT
# Protocol: as §1
# [2] = test system: E. coli acrD knockout strain; test: MIC, efflux pump knockout acrD; conditions: Escherichia coli, read-out: MIC acrD
# Protocol: as §1, with “plate.” for “plate. At various time intervals (0 to 8 h), 30 μl volumes of treated cultures are serially diluted and plated on LB agar plates.”
# [3] = test system: E. coli acrF knockout strain; test: MIC, efflux pump knockout acrF; conditions: Escherichia coli, read-out: MIC acrF
# Protocol: as §1, with “plate.” for “plate. At various time intervals (0 to 8 h), 30 μl volumes of treated cultures are serially diluted and plated on LB agar plates.”
# [4] = test system: E. coli acrZ knockout strain; test: MIC, efflux pump knockout acrZ; conditions: Escherichia coli, read-out: MIC acrZ
# Protocol: as §1, with “plate.” for “plate. At various time intervals (0 to 8 h), 30 μl volumes of treated cultures are serially diluted and plated on LB agar plates.”
# [5] = test system: E. coli emrB knockout strain; test: MIC, efflux pump knockout emrB; conditions: Escherichia coli, read-out: MIC emrB
# Protocol: as §1, with “plate.” for “plate. At various time intervals (0 to 8 h), 30 μl volumes of treated cultures are serially diluted and plated on LB agar plates.”
# [6] = test system: E. coli emrY knockout strain; test: MIC, efflux pump knockout emrY; conditions: Escherichia coli, read-out: MIC emrY
# Protocol: as §1, with “plate.” for “plate. At various time intervals (0 to 8 h), 30 μl volumes of treated cultures are serially diluted and plated on LB agar plates.”
# [7] = test system: E. coli mdfA knockout strain; test: MIC, efflux pump knockout mdfA; conditions: Escherichia coli, read-out: MIC mdfA
# Protocol: as §1, with “plate.” for “plate. At various time intervals (0 to 8 h), 30 μl volumes of treated cultures are serially diluted and plated on LB agar plates.”
# [8] = test system: E. coli bcr knockout strain; test: MIC, efflux pump knockout bcr; conditions: Escherichia coli, read-out: MIC bcr
# Protocol: as §1, with “plate.” for “plate. At various time intervals (0 to 8 h), 30 μl volumes of treated cultures are serially diluted and plated on LB agar plates.”
# [9] = test system: E. coli mdtG knockout strain; test: MIC, efflux pump knockout mdtG; conditions: Escherichia coli, read-out: MIC mdtG
# Protocol: as §1, with “plate.” for “plate. At various time intervals (0 to 8 h), 30 μl volumes of treated cultures are serially diluted and plated on LB agar plates.”
# [10] = test system: E. coli hsrA knockout strain; test: MIC, efflux pump knockout hsrA; conditions: Escherichia coli, read-out: MIC hsrA
# Protocol: as §1, with “plate.” for “plate. At various time intervals (0 to 8 h), 30 μl volumes of treated cultures are serially diluted and plated on LB agar plates.”
# [11] = test system: E. coli mdtL knockout strain; test: MIC, efflux pump knockout mdtL; conditions: Escherichia coli, read-out: MIC mdtL
# Protocol: as §1, with “plate.” for “plate. At various time intervals (0 to 8 h), 30 μl volumes of treated cultures are serially diluted and plated on LB agar plates.”
# [12] = test system: E. coli yciM knockout strain; test: MIC, efflux pump knockout yciM; conditions: Escherichia coli, read-out: MIC yciM
# Protocol: as §1, with “plate.” for “plate. At various time intervals (0 to 8 h), 30 μl volumes of treated cultures are serially diluted and plated on LB agar plates.”
# [13] = test system: E. coli mdtK knockout strain; test: MIC, efflux pump knockout mdtK; conditions: Escherichia coli, read-out: MIC mdtK
# Protocol: as §1, with “plate.” for “plate. At various time intervals (0 to 8 h), 30 μl volumes of treated cultures are serially diluted and plated on LB agar plates.”
# [14] = test system: E. coli emrE knockout strain; test: MIC, efflux pump knockout emrE; conditions: Escherichia coli, read-out: MIC emrE
# Protocol: as §1, with “plate.” for “plate. At various time intervals (0 to 8 h), 30 μl volumes of treated cultures are serially diluted and plated on LB agar plates.”
# [15] = test system: E. coli macB knockout strain; test: MIC, efflux pump knockout macB; conditions: Escherichia coli, read-out: MIC macB
# Protocol: as §1, with “plate.” for “plate. At various time intervals (0 to 8 h), 30 μl volumes of treated cultures are serially diluted and plated on LB agar plates.”
# [16] = test system: E. coli mdtB knockout strain; test: MIC, efflux pump knockout mdtB; conditions: Escherichia coli, read-out: MIC mdtB
# Protocol: as §1, with “plate.” for “plate. At various time intervals (0 to 8 h), 30 μl volumes of treated cultures are serially diluted and plated on LB agar plates.”
smiles,measurement,setting,value
"CN(C)[C@@H]1C(O)=C(C(N)=O)C(=O)[C@@]2(O)C(O)=C3C(=O)c4c(O)cccc4[C@@](C)(O)[C@H]3C[C@@H]12 [tetracycline, reference compound]",MIC,E. coli ∆tolC JW5503-1,0.3 µg/mL
same,MIC,E. coli ∆acrB JW0451-2,0.3 µg/mL
same,MIC,[1],1.2 µg/mL
same,MIC,[2],1.2 µg/mL
same,MIC,[3],1.2 µg/mL
same,MIC,[4],1.2 µg/mL
same,MIC,[5],1.2 µg/mL
same,MIC,[6],1.2 µg/mL
same,MIC,[7],1.2 µg/mL
same,MIC,[8],1.2 µg/mL
same,MIC,[9],1.2 µg/mL
same,MIC,[10],1.2 µg/mL
same,MIC,[11],1.2 µg/mL
same,MIC,[12],1.2 µg/mL
same,MIC,[13],1.2 µg/mL
same,MIC,[14],1.2 µg/mL
same,MIC,[15],1.2 µg/mL
same,MIC,[16],1.2 µg/mL
